Patent publication US12527801B2, “Cell activator of animal cell” (Vitamin C60 BioResearch Corporation, priority 2019, dated 2026)

Assays:
[1] = tested on: Normal human epidermal keratinocytes; test: Microarray test of gene expression (DNA Chip Genopal); format: cell-based; conditions: for ATP5F1 (internal standard) gene expression, Average / CDH1 (E-cadherin) gene expression, Average / CLDN1 (claudin 1) gene expression, Average / DSC1 (desmocollin 1) gene expression, Average / DSG1 (desmoglein 1) gene expression, Average / EDN1 (endothelin 1) gene expression, Average / FN1 (fibronectin) gene expression, Average / GUSB (internal standard) gene expression, Average / HAS3 (hyaluronan synthase) gene expression, Average / IVL (involucrin) gene expression, Average / KLK5 (kallikrein 5) gene expression, Average / KLK7 (kallikrein 7) gene expression, Average / KRT1 (keratin 1) gene expression, Average / KRT10 (keratin 10) gene expression, Average / PPIA (Cyclophilin) (internal standard) gene expression, Average / PTGES (prostaglandin E synthetase) gene expression, Average / PTGS2 (COX-2) (cyclooxygenase 2) gene expression, Average / RPLPO (internal standard) gene expression, Average / SPINK5 (LEKTI1) (serine protease inhibitor) gene expression, Average / SPRR1B (cornified envelope constituent protein) gene expression, Average / TGM1 (transglutaminase 1) gene expression, Average: 24 h, ratio, control as 1
Experimental: Normal human epidermal keratinocytes were seeded on 6-well plates at the cell density of 1.5×10^5 cells/well using a HuMedia-KG2 medium. After culturing for 24 hours, the medium was replaced with 3 mL of a HuMedia-KB2 medium comprising AOH at the concentration of 0, 30, 100, and 300 μg/mL. After the replacement, culturing was performed for 24 hours, and the cells were immersed in a QIAzol reagent and lysed. RNA purified using an miRNeasy Mini Kit (QIAGEN) was recovered from the lysate, and a DNA microarray was performed using an mRNA expression analysis chip (DNA Chip Genopal (registered trademark)). The obtained results were analyzed to represent the expression of various genes as a ratio with a correction value of the control as 1, and a significant difference test was performed using the Student's t-test (significance level p of 5%).
In Table 2, it can be determined that when the value is larger than 1, gene expression is increased, and when the p value is smaller than 0.05, there is a significant change with respect to the control (indicated by * in the table). AOH treatment varied the expression of some genes in a concentration-dependent manner.

[2] = In vitro skin sensitization test (DPRA method) (OECD TG442C); format: biochemical
[3] = In vitro phototoxicity test (OECD TG432); format: cell-based
[4] = AOH treatment, concentration not given

In the case of `O=c1[nH]c2nn[nH]c(=O)c2[nH]1` [AOH, 3H-imidazo[4,5-d][1,2,3]triazine-4,6(5H,7H)-dione], the “ATP5F1 (internal standard) gene expression, Average” value (“ATP5F1” below) ([1]; 30 μg/mL) is reported as 1.00, the “CDH1 (E-cadherin) gene expression, Average” value (“CDH1 … Average” below) ([1]; 30 μg/mL) is reported as 1.11 and the “CLDN1 (claudin 1) gene expression, Average” value (from here on “CLDN1 … Average”) ([1]; 30 μg/mL) is reported as 1.19. For the same molecule, the “DSC1 (desmocollin 1) gene expression, Average” value (from here on “DSC1 … Average”) ([1]; 30 μg/mL) was 1.26, the “DSG1 (desmoglein 1) gene expression, Average” value (“DSG1 … Average” for short) ([1]; 30 μg/mL) was 1.09 and the “EDN1 (endothelin 1) gene expression, Average” value (shortened to “EDN1 … Average”) ([1]; 30 μg/mL) was 1.24. The “FN1 (fibronectin) gene expression, Average” value (“FN1 … Average” below) ([1]; 30 μg/mL) was 1.12, the “GUSB (internal standard) gene expression, Average” value (shortened to “GUSB”) ([1]; 30 μg/mL) was 0.97 and the “HAS3 (hyaluronan synthase) gene expression, Average” value (“HAS3 … Average” below) ([1]; 30 μg/mL) was 1.09. The “IVL (involucrin) gene expression, Average” value (“IVL … Average” below) ([1]; 30 μg/mL) was 1.35, the “KLK5 (kallikrein 5) gene expression, Average” value (“KLK5 … Average” for short) ([1]; 30 μg/mL) was 1.11 and the “KLK7 (kallikrein 7) gene expression, Average” value (shortened to “KLK7 … Average”) ([1]; 30 μg/mL) was 1.12. The “KRT1 (keratin 1) gene expression, Average” value ([1]; 30 μg/mL) was 1.46, the “KRT10 (keratin 10) gene expression, Average” value (“KRT10 … Average” below) ([1]; 30 μg/mL) was 1.19 and the “PPIA (Cyclophilin) (internal standard) gene expression, Average” value (shortened to “PPIA (Cyclophilin)”) ([1]; 30 μg/mL) was 0.98. The “PTGES (prostaglandin E synthetase) gene expression, Average” value (from here on “PTGES … Average”) ([1]; 30 μg/mL) was 0.77, the “PTGS2 (COX-2) (cyclooxygenase 2) gene expression, Average” value (“PTGS2 … Average” below) ([1]; 30 μg/mL) was 0.90 and the “RPLPO (internal standard) gene expression, Average” value (shortened to “RPLPO”) ([1]; 30 μg/mL) was 1.03. The “SPINK5 (LEKTI1) (serine protease inhibitor) gene expression, Average” value ([1]; 30 μg/mL) was 1.15, the “SPRR1B (cornified envelope constituent protein) gene expression, Average” value (“SPRR1B … Average” for short) ([1]; 30 μg/mL) was 1.27 and the “TGM1 (transglutaminase 1) gene expression, Average” value (“TGM1 … Average” for short) ([1]; 30 μg/mL) was 1.16. For the same molecule, the “ATP5F1” value ([1]; 100 μg/mL) was 1.02, the “CDH1 … Average” value ([1]; 100 μg/mL) was 1.09 and the “CLDN1 … Average” value ([1]; 100 μg/mL) was 1.49. The “DSC1 … Average” value ([1]; 100 μg/mL) was 1.28, the “DSG1 … Average” value ([1]; 100 μg/mL) was 1.13 and the “EDN1 … Average” value ([1]; 100 μg/mL) was 1.39. For the same molecule, the “FN1 … Average” value ([1]; 100 μg/mL) was 1.15, the “GUSB” value ([1]; 100 μg/mL) was 1.00 and the “HAS3 … Average” value ([1]; 100 μg/mL) was 1.27. The “IVL … Average” value ([1]; 100 μg/mL) was 1.49, the “KLK5 … Average” value ([1]; 100 μg/mL) was 1.16 and the “KLK7 … Average” value ([1]; 100 μg/mL) was 1.24. For the same molecule, the “KRT1 (keratin 1) gene expression, Average” value ([1]; 100 μg/mL) was 1.60, the “KRT10 … Average” value ([1]; 100 μg/mL) was 1.33 and the “PPIA (Cyclophilin)” value ([1]; 100 μg/mL) was 0.96. For the same molecule, the “PTGES … Average” value ([1]; 100 μg/mL) was 0.79, the “PTGS2 … Average” value ([1]; 100 μg/mL) was 0.93 and the “RPLPO” value ([1]; 100 μg/mL) was 1.06. The “SPINK5 (LEKTI1) (serine protease inhibitor) gene expression, Average” value ([1]; 100 μg/mL) was 1.28, the “SPRR1B … Average” value ([1]; 100 μg/mL) was 1.42 and the “TGM1 … Average” value ([1]; 100 μg/mL) was 1.29. The “ATP5F1” value ([1]; 300 μg/mL) was 1.01, the “CDH1 … Average” value ([1]; 300 μg/mL) was 1.16 and the “CLDN1 … Average” value ([1]; 300 μg/mL) was 1.43. The “DSC1 … Average” value ([1]; 300 μg/mL) was 1.59, the “DSG1 … Average” value ([1]; 300 μg/mL) was 1.15 and the “EDN1 … Average” value ([1]; 300 μg/mL) was 1.75. For the same molecule, the “FN1 … Average” value ([1]; 300 μg/mL) was 1.22, the “GUSB” value ([1]; 300 μg/mL) was 0.97 and the “HAS3 … Average” value ([1]; 300 μg/mL) was 1.60. The “IVL … Average” value ([1]; 300 μg/mL) was 1.75, the “KLK5 … Average” value ([1]; 300 μg/mL) was 1.24 and the “KLK7 … Average” value ([1]; 300 μg/mL) was 1.17. The “KRT1 (keratin 1) gene expression, Average” value ([1]; 300 μg/mL) was 2.07, the “KRT10 … Average” value ([1]; 300 μg/mL) was 1.44 and the “PPIA (Cyclophilin)” value ([1]; 300 μg/mL) was 0.99. For the same molecule, the “PTGES … Average” value ([1]; 300 μg/mL) was 0.56, the “PTGS2 … Average” value ([1]; 300 μg/mL) was 0.79 and the “RPLPO” value ([1]; 300 μg/mL) was 1.08. The “SPINK5 (LEKTI1) (serine protease inhibitor) gene expression, Average” value ([1]; 300 μg/mL) was 1.38, the “SPRR1B … Average” value ([1]; 300 μg/mL) was 1.60 and the “TGM1 … Average” value ([1]; 300 μg/mL) was 1.57. For the same molecule, the “gene expression of E-cadherin (CDH1), change in words” value [1, 4] was “significant increase”, the “gene expression of SPRR1B, change in words” value [1, 4] was “significant increase” and the “gene expression of claudin 1 (CLDN1), change in words” value [1, 4] was “significant increase”. For the same molecule, the “gene expression of cyclooxygenase (PTGS2), change in words” value [1, 4] was “significant decrease”, the “gene expression of desmocollin 1 (DSC1), change in words” value [1, 4] was “significant increase” and the “gene expression of desmoglein 1 (DSG1), change in words” value [1, 4] was “significant increase”. For the same molecule, the “gene expression of endothelin 1 (EDN1), change in words” value [1, 4] was “significant increase”, the “gene expression of fibronectin (FN1), change in words” value [1, 4] was “slight increase” and the “gene expression of hyaluronan synthase (HAS3), change in words” value [1, 4] was “significant increase”. The “gene expression of involucrin (IVL), change in words” value [1, 4] was “significant increase”, the “gene expression of kallikrein 5 (KLK5), change in words” value [1, 4] was “significant increase” and the “gene expression of kallikrein 7 (KLK7), change in words” value [1, 4] was “significant increase”. For the same molecule, the “gene expression of keratin 1 (KRT1), change in words” value [1, 4] was “significant increase”, the “gene expression of keratin 10 (KRT10), change in words” value [1, 4] was “significant increase” and the “gene expression of prostaglandin E synthetase (PTGES), change in words” value [1, 4] was “significant decrease”. For the same molecule, the “gene expression of serine protease inhibitor (SPIMK5), change in words” value [1, 4] was “significant increase”, the “gene expression of transglutaminase 1 (TGM1), change in words” value [1, 4] was “significant increase” and the “toxicity in in vitro skin sensitization test (DPRA method)” value [2] was “toxicity was not recognized”. The “toxicity in in vitro phototoxicity test” value [3] was “toxicity was not recognized”.
